Patent US10076511B2, “Bisamide derivative of dicarboxylic acid as an agent for stimulating tissue regeneration and recovery of diminished tissue function” (TREAMID GmbH, priority 2015, dated 2018)
Several values for one entry are separate records, joined by “and”; a condition that tells them apart may be missing. Equal entries are not always repeated. Marks after values point to notes of the source that are not given here.

System: male rats
Assay: Benign prostatic hyperplasia (BPH) model induced with Sulpiride, prostate weight and morphometry
Format: in vivo, rat
Description: This is manifested in a decrease in the severity of the morphological changes typical in these diseases. CAP was simulated by suturing the ventral lobe of the gland with a silk thread, and BPH was simulated by the administration of Sulpiride. The reference drug was Prostamol Uno.
Animals with BPH received Teramide intragastrically for 2 months at a dose of 0.5 mg/kg.
Experiments were performed on 40 male Wistar rats (3 months of age). To simulate chronic abacterial prostatitis, the ventral lobe of the prostate was sutured with a silk thread (under anesthesia). The model of benign prostatic hyperplasia (BPH) was simulated in rats by inducing hyperprolactinaemia, for which male rats were intraperitoneally injected with Sulpiride at a dose of 40 mg/kg every day for 2 months (Eglonil, Sanofi Winthrop Industry, France).
The ability of Treamid to normalize the structure of the prostate gland was studied in the presence of administration of Sulpiride. For this purpose, Treamid was administered intragastrically for 2 months at a dose of 0.5 mg/kg simultaneously with Sulpirid. The control animals received a solvent (2% starch mucus) in an equivalent volume. The animals of the comparison group were injected intragastrically with a solution of Prostamol Uno at a dose of 50 mg/kg. At the end of the administration course, the animals were weighed and euthanized in a CO2 chamber. Sulpiride is known to cause the development of BPH in the lateral lobe of the gland in rats [Van Coppenolle Fabien, Christian Slomianny, Francoise Carpentier Effects of hyperprolactinemia on rat prostate growth: evidence of androgeno—dependence.//Physiol. Endocrinol. Metab.—2001.—P. 120-129]. In this regard, this lobe was dissected. Its weight, weight coefficient, and volume were determined. Further, it was subjected to a morphological analysis. The lateral lobe of the prostate gland was fixed in 10% formalin and poured into paraffin, followed by preparation of sections of a thickness of 5 μm. Deparaffined sections of the gland were stained with hematoxylin and eosin. On the histological sections, the presence of proliferative centers and daughter acini were determined per standard section area. In addition, the area of the epithelial and stromal structures was measured on the standard area of a histological section. These parameters were determined by using a computer graphic analysis on the standard area of a histological section (micrographs of 10 serial visual fields performed by an AxioCam Erc5s camera mounted on an AxioLab A1 microscope (×10 lens, ×10 eyepiece), with an image transfer software of “AxioVision LE”, Carl Zeisis). The stromal-epithelial ratio was defined as a ratio of the area of stroma to the area of epithelium.
The effectiveness of the test compound was estimated by the following criteria: lower intensity of morphological symptoms of benign prostatic hyperplasia:—a decrease in the number of proliferation centers and daughter acini, and a decrease in the area of the epithelium.

[1] = Treamid 0.5 mg/kg 2 months, Prostamol Uno 50 mg/kg

Compound: O=C(CCCC(=O)NCCc1ncc[nH]1)NCCc1ncc[nH]1 [Treamid]
- Volume of the lateral lobe of the prostate gland, cm^3 [1]: 0.62 ± 0.14# cm^3
- Weight coefficient of the lateral lobe of the prostate gland [1]: 0.69 ± 0.12 mg/g
- Weight of the lateral lobe of the prostate gland [1]: 381.67 ± 70.30 mg
- Relative area (%) of the acinar epithelium on the standard area of a section of the lateral lobe (group M ± m): 13.89 ± 2.08 %
- Relative area (%) of the stroma on the standard area of a section of the lateral lobe (group M ± m): 45.66 ± 2.30 %
- The number of daugter proliferative centers (abs.) (group M ± m): 1.60 ± 0.60 abs.
- The number of structures (abs.) consisting of 2-3 glandules tightly adjacent to each other (group M ± m): 1.60 ± 0.81 abs.
- Relative area (%) of the acinar epithelium on the standard area of a section of the lateral lobe (individual animals): 10.26% and 14.09% and 16.30% and 20.19% and 8.61%
- Relative area (%) of the stroma on the standard area of a section of the lateral lobe (individual animals): 48.61% and 45.59% and 44.14% and 38.12% and 51.82%
- The number of daugter proliferative centers (abs.) (individual animals): 3 abs. (2×) and 1 abs. (2×) and 0 abs.
- The number of structures (abs.) consisting of 2-3 glandules tightly adjacent to each other (individual animals): 1 abs. and 3 abs. and 4 abs. and 0 abs. (2×)
